Where a name gives a salt, the structure may show the parent alone.
How the values were obtained:
serotonin 1A receptor = target: T1, serotonin 1A receptor (Rattus norvegicus, UniProt P19327); test: Binding test on [3H] 8-hydroxy-dipropylaminotetralin (serotonin 1A receptor); conditions: [3H] 8-OH-DPAT 0.5 nM, receptor fraction of rat hippocampus; read-out: 5HT1a
T1 construct: To the receptor fraction of the hippocampus were added a test compound and 0.5 nM of [^3H]; 8-hydroxy-dipropylaminotetralin; from tissue; host or cells: SD rat hippocampus, membrane (receptor) fraction
T1 sequence (P19327 1-422): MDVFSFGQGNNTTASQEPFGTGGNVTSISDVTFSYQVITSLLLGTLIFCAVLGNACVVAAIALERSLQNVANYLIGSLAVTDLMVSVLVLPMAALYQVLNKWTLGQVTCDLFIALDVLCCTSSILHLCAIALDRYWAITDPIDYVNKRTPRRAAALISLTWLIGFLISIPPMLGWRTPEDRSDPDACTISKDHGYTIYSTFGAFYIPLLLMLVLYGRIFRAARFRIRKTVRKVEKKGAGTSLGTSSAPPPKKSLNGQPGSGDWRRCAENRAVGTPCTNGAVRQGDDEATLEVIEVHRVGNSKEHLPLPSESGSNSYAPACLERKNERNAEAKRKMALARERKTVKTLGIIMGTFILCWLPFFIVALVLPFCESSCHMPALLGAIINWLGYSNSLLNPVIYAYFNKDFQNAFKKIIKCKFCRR

α1 adrenalin receptor = test: Binding test on [3H] prazosin (α1 adrenalin receptor); parameters: species or system rat; conditions: [3H] prazosin about 0.2 nM, receptor fraction of rat cerebral cortex
serotonin 2 receptor = serotonin 2 receptor (Rattus norvegicus, UniProt P14842); test: Binding test on [3H] ketanserin (serotonin 2 receptor); conditions: [3H] ketanserin 0.3 nM, receptor fraction of rat cerebral cortex; read-out: 5HT2
Chain of serotonin 2 receptor (P14842 whole entry): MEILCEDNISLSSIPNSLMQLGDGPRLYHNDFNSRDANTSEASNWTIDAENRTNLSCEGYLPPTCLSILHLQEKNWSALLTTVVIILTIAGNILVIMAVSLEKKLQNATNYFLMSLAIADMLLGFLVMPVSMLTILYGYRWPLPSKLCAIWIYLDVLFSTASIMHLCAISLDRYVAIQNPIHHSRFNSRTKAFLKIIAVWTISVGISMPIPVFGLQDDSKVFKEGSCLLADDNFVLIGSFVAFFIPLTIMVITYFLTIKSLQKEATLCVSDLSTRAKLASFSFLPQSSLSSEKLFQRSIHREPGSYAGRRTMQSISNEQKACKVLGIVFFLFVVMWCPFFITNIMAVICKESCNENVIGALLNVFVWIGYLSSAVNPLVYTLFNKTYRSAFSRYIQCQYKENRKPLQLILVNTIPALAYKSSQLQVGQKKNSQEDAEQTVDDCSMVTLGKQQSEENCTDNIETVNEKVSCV

| Structure (SMILES) | melting point | Ki (serotonin 1A receptor) | Ki (α1 adrenalin receptor) | Ki (serotonin 2 receptor) |
| --- | --- | --- | --- | --- |
| COc1ccc2c(c1)N(C1CCN(CCc3ccc(F)cc3)CC1)CCC2 (as salt: hydrochloride) | 258 °C (dec.) | – | – | – |
| COc1ccc2c(c1OC)N(C1CCN(CCc3ccc(F)cc3)CC1)CCC2 (as salt: hydrochloride) | 213 to 215 °C | – | – | – |
| COc1ccc2c(c1)N(C1CCN(CC(=O)c3ccc(F)cc3)CC1)CCC2 (as salt: hydrochloride) | 153 to 155 °C (dec.) | – | – | – |
| CCN1CCN([C@@H]2c3ccccc3CC2N(C)Cc2ccc(F)cc2)CC1 (stereo partly drawn) (as salt: hydrochloride) [Example 254] | 196 to 198 °C | – | – | – |
| COc1ccc2c(c1)N(C1CCN(CCCC#N)CC1)CCC2 (as salt: hydrochloride) [Example 269, 1-[1-(4-Cyanopropyl)piperidin-4-yl]-7-methoxy-1,2,3,4-tetrahydroquinoline Hydrochloride] | 180 to 183 °C (dec.) | – | – | – |
| COc1ccc2c(c1)N(C1CCN(CCc3cccs3)CC1)CCC2 (as salt: hydrochloride) [Example 270, 1-{1-[2-(2-Thienyl)ethyl]piperidin-4-yl}-7-methoxy-1,2,3,4-tetrahydroquinoline Hydrochloride] | 232 to 235 °C | – | – | – |
| OCCOc1ccc2c(c1)CCCC2C1CCN(CCc2ccc(F)cc2)CC1 (stereo not drawn) (as salt: hydrochloride) [Example 278, 1-[2-(4-fluorophenyl)ethyl]-4-[6-(2-hydroxy)ethoxy-1,2,3,4-tetrahydronaphthalen-1-yl]piperidine] | 213 to 215 °C (dec.) | – | – | – |
| COc1ccc2c(c1C)N(C1CCN(CCc3ccc(F)cc3)CC1)CCC2 (as salt: oxalate) | 176 to 178 °C | – | – | – |
| O=C(CCl)NCc1ccc(CCN2CCC(N3CCc4ccccc43)CC2)cc1 (as salt: oxalate) [Example 37, 1-[1-(4-chloroacetamidomethylphenethyl)piperidin-4-yl]indoline] | 138 °C | – | – | – |
| CS(=O)(=O)NCc1ccc(CCN2CCC(N3CCc4ccccc43)CC2)cc1 (as salt: oxalate) [Example 38, 1-[1-(4-methanesulfonylaminomethylphenethyl)piperidin-4-yl]indoline] | 199 °C | – | – | – |
| O=C(Cc1ccc2ccn(C3CCN(CCc4ccc(F)cc4)CC3)c2c1)N1CCCC1 (as salt: oxalate) [Example 298, 1-[1-(4-fluorophenethyl)piperidin-4-yl]-6-(tetramethylenecarbamoylmethyl)indole Oxalate] | 171.5 to 172.1 °C | – | – | – |
| CC(=O)NCc1ccc2ccn(C3CCN(CCc4ccc(F)cc4F)CC3)c2c1 (as salt: oxalate) [Example 357, 1-[1-(2,4-difluorophenethyl)piperidin-4-yl]-6-acetamidomethylindole] | 103 to 106 °C | – | – | – |
| O=C1CCCN1Cc1ccc2ccn(C3CCN(CCc4ccc(F)cc4)CC3)c2c1 (as salt: oxalate) [Example 358, 1-[1-(4-fluorophenethyl)piperidin-4-yl]-6-(2-pyrrolidon-1-yl)methylindole] | 179 to 180 °C | – | – | – |
| CC(=O)N(C)Cc1ccc2ccn(C3CCN(CCc4ccc(F)cc4)CC3)c2c1 (as salt: oxalate) [Example 359, 1-[1-(4-fluorophenethyl)piperidin-4-yl]-6-N-methylacetamidomethylindole] | 148 to 149 °C | – | – | – |
| CNCc1ccc2ccn(C3CCN(CCc4ccc(F)cc4)CC3)c2c1 (as salt: oxalate) [Example 361, 1-[1-(4-fluorophenethyl)piperidin-4-yl]-6-N-methylaminomethylindole] | 195 to 196 °C | – | – | – |
| O=C1NCCN1Cc1ccc2ccn(C3CCN(CCc4ccc(F)cc4)CC3)c2c1 [Example 355, 1-[1-(4-fluorophenethyl)piperidin-4-yl]-6-(2-imidazolidonyl)methylindole] | – | 0.35 nM | 39.5 nM | 6.87 nM |
| O=C1CCCN1Cc1ccc2ccn(C3CCN(CCc4ccc(F)cc4)CC3)c2c1 [Example 358, 1-[1-(4-fluorophenethyl)piperidin-4-yl]-6-(2-pyrrolidon-1-yl)methylindole] | – | 0.73 nM | 41.8 nM | 14 nM |
| CC(=O)N(C)Cc1ccc2ccn(C3CCN(CCc4ccc(F)cc4)CC3)c2c1 [Example 359, 1-[1-(4-fluorophenethyl)piperidin-4-yl]-6-N-methylacetamidomethylindole] | – | 0.71 nM | 75.9 nM | 7.39 nM |

| Structure (SMILES) | melting point | Ki (serotonin 1A receptor) | Ki (α1 adrenalin receptor) | Ki (serotonin 2 receptor) |
| --- | --- | --- | --- | --- |
| CC(=O)NCc1ccc2ccn(C3CCN(CCCc4ccc(F)cc4)CC3)c2c1 [Example 360, 1-{1-[3-(4-fluorophenyl)propyl]-piperidin-4-yl}-6-acetamidomethylindole] | – | 26.6 nM | 690 nM | > 20 nM |
| CNCc1ccc2ccn(C3CCN(CCc4ccc(F)cc4)CC3)c2c1 [Example 361, 1-[1-(4-fluorophenethyl)piperidin-4-yl]-6-N-methylaminomethylindole] | – | 0.27 nM | 77.4 nM | > 20 nM |
| CCCC(=O)NCc1ccc2ccn(C3CCN(CCc4ccc(F)cc4)CC3)c2c1 [Example 362, 1-[1-(4-fluorophenethyl)piperidin-4-yl]-6-(n-butyryl)aminomethylindole] | – | 0.46 nM | 144 nM | 3.54 nM |
| O=C(NCc1ccc2ccn(C3CCN(CCc4ccc(F)cc4)CC3)c2c1)n1ccnc1 [Example 368, 1-[1-(4-fluorophenethyl)piperidin-4-yl]-6-imidazocarbonylaminomethylindole] | – | 1.63 nM | 37.6 nM | 0.56 nM |
| O=C(CCO)NCc1ccc2ccn(C3CCN(CCc4ccc(F)cc4)CC3)c2c1 [Example 369, 1-[1-(4-fluorophenethyl)piperidin-4-yl]-6-(3-hydroxypropionylamino)methylindole] | – | 2.02 nM | 121 nM | 2.88 nM |
| CC(=O)NCc1ccc2c(C=O)cn(C3CCN(CCc4ccc(F)cc4)CC3)c2c1 [Example 370, 1-[1-(4-fluorophenethyl)piperidin-4-yl]-3-formyl-6-acetamidomethylindole] | – | > 20 nM | 256 nM | > 20 nM |
| CC(=O)NCc1ccc2c(CO)cn(C3CCN(CCc4ccc(F)cc4)CC3)c2c1 [Example 372, 1-[1-(4-fluorophenethyl)piperidin-4-yl]-3-hydroxymethyl-6-acetamidomethylindole] | – | > 20 nM | 206 nM | > 20 nM |
| CN(C)CC(=O)NCc1ccc2ccn(C3CCN(CCc4ccc(F)cc4)CC3)c2c1 [Example 375, 1-[1-(4-fluorophenethyl)piperidin-4-yl]-6-(N,N-dimethylaminoacetamido)methylindole] | – | 1.56 nM | 61.4 nM | 3.37 nM |
| O=C(CN1CCCCC1)NCc1ccc2ccn(C3CCN(CCc4ccc(F)cc4)CC3)c2c1 [Example 376, 1-[1-(4-fluorophenethyl)piperidin-4-yl]-6-[(piperidin-1-yl)acetamido]methylindole] | – | 0.91 nM | 46.7 nM | 2.1 nM |
| CN(C)CCC(=O)NCc1ccc2ccn(C3CCN(CCc4ccc(F)cc4)CC3)c2c1 [Example 378, 1-[1-(4-fluorophenethyl)piperidin-4-yl]-6-(3-N,N-dimethylaminopropionyl)aminomethylindole] | – | 14.2 nM | 43.7 nM | 1.54 nM |
| O=C(CCN1CCCCC1)NCc1ccc2ccn(C3CCN(CCc4ccc(F)cc4)CC3)c2c1 [Example 379, 1-[1-(4-fluorophenethyl)piperidin-4-yl]-6-[3-(piperidin-1-yl)propionylamino]methylindole] | – | 9.65 nM | 30.3 nM | 1.25 nM |
| O=C(CF)NCc1ccc2ccn(C3CCN(CCc4ccccc4F)CC3)c2c1 [Example 381, 1-[1-(2-fluorophenethyl)piperidin-4-yl]-6-fluoroacetamidomethylindole] | – | 1.37 nM | 101 nM | 2.02 nM |
| CC(=O)NCc1ccc2ccn(C3CCN(CCc4cccnc4)CC3)c2c1 [Example 386, 1-{1-[2-(3-Pyridyl)ethyl]piperidin-4-yl}-6-acetamidomethylindole] | – | 5.38 nM | 26.2 nM | > 20 nM |
| CC(=O)NCc1ccc2c(C#N)cn(C3CCN(CCc4ccc(F)cc4)CC3)c2c1 [Example 387, 3-cyano-1-[1-(4-fluorophenethyl)piperidin-4-yl]-6-acetamidomethylindole] | – | 63.5 nM | 26.2 nM | > 20 nM |
| CC(=O)NCc1ccc2ccn(C3CCN(CCc4ccc(C(C)O)cc4)CC3)c2c1 (stereo not drawn) [Example 388, 1-{4-[(1-hydroxyethyl)phenethyl]piperidin-4-yl}-6-acetamidomethylindole] | – | 2.26 nM | 366 nM | > 20 nM |
| O=Cc1ccc2ccn(C3CCN(CCc4ccccc4F)CC3)c2c1 [Example 390, 1-[1-(2-fluorophenethyl)piperidin-4-yl]-6-formylindole] | – | 0.99 nM | 34.3 nM | 11.6 nM |
| CC(O)c1ccc2ccn(C3CCN(CCc4ccc(F)cc4)CC3)c2c1 (stereo not drawn) [Example 392, 1-[1-(4-fluorophenethyl)piperidin-4-yl]-6-(1-hydroxyethyl)indole Oxalate] | – | 0.65 nM | 25 nM | 38.1 nM |
